Measured values: patent US5702934A, “Processes for producing an enzyme” (priority 1993, dated 1997)
Read-outs that look alike come from different tables or passages of the source.

Key:
[1] = target: T1, Fusarium oxysporum p45 proteolytic enzyme (p45 maturase, metalloprotease), SEQ ID NO:6 (Fusarium oxysporum, UniProt M1UZ70); format: biochemical
T1 construct: apparently native maturase from F. oxysporum; recombinant p45 also made in A. oryzae
Method: (§1) The tryptic activity is measured in microtiter plates; 100 μl samples are mixed with 100 μl of substrate (Stock: 87 mg/ml L-BAPNA (Sigma) in DMSO, diluted 50-fold in buffer) and the absorption at 405 nm is measured using a Thermomax microplate reader from Molecular Devices.
(§2) Metalloproteases contain a catalytic zinc metal center which participates in the hydrolysis of the peptide backbone. The active zinc center differentiates these proteases from calpains whose activities are dependent upon the presence of calcium. Confirmation of a protease as a metallo-protease is loss of proteolytic activity accomplished by removal of the zinc center with 1,10-phenanthroline (1 mM) followed by titration with Zn^2+ (0.1-100μM) to restore full activity.

[2] = target: T2, trypsin-like Fusarium oxysporum protease (F. oxysporum DSM 2672), SEQ ID NO: 2 (Fusarium oxysporum, UniProt P35049); experiment: Tryptic activity (L-BAPNA) of the trypsin-like protease with or without 1,10-phenanthroline; format: biochemical
T2 construct: made in house; host or cells: Aspergillus oryzae IFO 4177 transformed with pSX183
Method: as §1, §2

[3] = target: pro-trypsin-like Fusarium oxysporum protease (recombinant proenzyme form of the trypsin-like F. oxysporum protease) (Fusarium oxysporum DSM 2672)

c1cnc2c(c1)ccc1cccnc12 [1,10-phenanthroline]
Maturase activity upon addition of inhibitor (in words) ([1]; 1 mM 1,10-phenanthroline): halted
Tryptic Activity (Δ Abs/min × 10^-4) released by p45 Maturase from pro-trypsin-like F. oxysporum protease ([1]; 1,10-phenanthroline 1 mM, no Zn2+, without inhibitor 54.0, proenzyme alone 1.26): 2.9 Δ Abs/min × 10^-4
inhibition of the trypsin-like protease (in words) ([2]; 1,10-phenanthroline 1 mM): not inhibited
Tryptic Activity (Δ Abs/min × 10^-4) ([2]; 1,10-phenanthroline 1 mM, no Zn2+, without inhibitor 34.0): 33.8 Δ Abs/min × 10^-4
tryptic activity with inhibitor addition ([2]; 1,10-phenanthroline (1 mM), without inhibitor 34.0×10^-4): 33.8×10^-4 ΔAbs/min

O=C(O)CN(CCN(CC(=O)O)CC(=O)O)CC(=O)O [EDTA]
Maturase activity upon addition of inhibitor (in words) ([1]; EDTA 1 mM substituted for 1,10-phenanthroline): Analogous results

p45 proteolytic enzyme (maturase) from Fusarium oxysporum
Tryptic Activity (Δ Abs/min × 10^-4) released from the proenzyme, L-BAPNA assay [3]: 0.0054 Δ Abs/min
